Assay results: ChEMBL document CHEMBL1201862, “PubChem BioAssay data set” (2004)
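Cells were grown in 96-well plates and exposed to each compound for 48 hours at five concentrations; endpoints were interpolated linearly between bracketing concentrations, or set to the highest concentration if not reached. Abbreviation: GI50, concentration required for 50% inhibition of growth.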 The source made the active and inactive calls. Cut-off read from the data, not from the text of the source: active = GI50 up to about 1.1 µM and inactive = higher.

Legend:
Assay in all cases: NCI-60 cell line screen, 48 h
[1] = system: 786-0
[2] = system: A549
[3] = system: ACHN
[4] = system: EKVX
[5] = system: HCC 2998
[6] = system: Hs-578T
[7] = system: KM12
[8] = system: MDA-MB-231
[9] = system: MDA-N
[10] = system: NCI-H522
[11] = system: OVCAR-3
[12] = system: OVCAR-5
[13] = system: SF-539
[14] = system: SK-MEL-5
[15] = system: SNB-75
[16] = system: SR
[17] = system: T47D
[18] = system: UACC-62
[19] = system: UO-31
[20] = system: HOP-92

| SMILES | GI50 [1] | GI50 [2] | GI50 [3] | GI50 [4] | GI50 [5] | GI50 [6] | GI50 [7] | GI50 [8] | GI50 [9] | GI50 [10] | GI50 [11] | GI50 [12] | GI50 [13] | GI50 [14] | GI50 [15] | GI50 [16] | GI50 [17] | GI50 [18] | GI50 [19] | GI50 [20] |
| --- | --- | --- | --- | --- | --- | --- | --- | --- | --- | --- | --- | --- | --- | --- | --- | --- | --- | --- | --- | --- |
| O=C1OCC(CN2CCC(n3c(=O)[nH]c4ccccc43)CC2)=C1c1ccccc1 | 33.4 µM (inactive) | 30.1 µM (inactive) | 29.4 µM (inactive) | 25.9 µM (inactive) | 23.8 µM (inactive) | 30 µM (inactive) | 16.3 µM (inactive) | 26.4 µM (inactive) | 26.2 µM (inactive) | 19.2 µM (inactive) | 24.7 µM (inactive) | 41 µM (inactive) | 18.9 µM (inactive) | 15.3 µM (inactive) | 28.2 µM (inactive) | 30.2 µM (inactive) | 6.03 µM (inactive) | 12.6 µM (inactive) | 11.5 µM (inactive) |  |
| CC1(C)C(C#N)=[N+]([O-])C(C)(C)N1O | > 100 µM (inactive) | > 100 µM (inactive) | > 100 µM (inactive) | > 100 µM (inactive) | > 100 µM (inactive) | > 100 µM (inactive) | > 100 µM (inactive) | > 100 µM (inactive) | 65.8 µM (inactive) |  | > 100 µM (inactive) | > 100 µM (inactive) | > 100 µM (inactive) | 34.6 µM (inactive) | > 100 µM (inactive) | > 100 µM (inactive) | > 100 µM (inactive) | > 100 µM (inactive) | > 100 µM (inactive) | > 100 µM (inactive) |
| O=C([C@H](O)[C@@H](O)c1ccc(Br)cc1)C12CC3CC(CC(C3)C1)C2 | 9.53 µM (inactive) | 9.38 µM (inactive) | 16.3 µM (inactive) | 32.4 µM (inactive) | > 21.3 µM (inactive) | > 39.1 µM (inactive) | 13.8 µM (inactive) | 10.5 µM (inactive) | 11.1 µM (inactive) | 10.8 µM (inactive) | 9.25 µM (inactive) | 39.4 µM (inactive) | 8.91 µM (inactive) | 23.6 µM (inactive) | 2.93 µM (inactive) | 34.8 µM (inactive) | 6.56 µM (inactive) | 7.82 µM (inactive) | 23.7 µM (inactive) |  |
| CC[C@]12C=CCN3CCC4(c5cc(/N=N/c6ccc([N+](=O)[O-])cc6)c(OC)cc5N(C)[C@H]4[C@@](O)(C(=O)OC)[C@@H]1OC(C)=O)[C@@H]32 (stereo partly drawn) | 11.8 µM (inactive) | 15.3 µM (inactive) | 15 µM (inactive) | 9.86 µM (inactive) |  | 18.4 µM (inactive) | 14.3 µM (inactive) | 9.59 µM (inactive) | 12.9 µM (inactive) |  | 4.53 µM (inactive) | 13 µM (inactive) | 16.8 µM (inactive) | 12.4 µM (inactive) | 9.48 µM (inactive) | 9.71 µM (inactive) | 13.3 µM (inactive) | 17.2 µM (inactive) | 11.2 µM (inactive) | 2.54 µM (inactive) |
| COc1ccc(C(NCCNC(c2ccc(OC)c(OC)c2)c2cc3c(cc2O)OCO3)c2cc3c(cc2O)OCO3)cc1OC (stereo not drawn) | 1.82 µM (inactive) | 12.2 µM (inactive) | 2.64 µM (inactive) | 6.22 µM (inactive) |  | 3.24 µM (inactive) | 2.67 µM (inactive) | 3.13 µM (inactive) | 1.64 µM (inactive) | 1.74 µM (inactive) | 2.65 µM (inactive) | 4.57 µM (inactive) | 2.27 µM (inactive) | 7.05 µM (inactive) | 3.56 µM (inactive) | 0.682 µM (active) | 3.37 µM (inactive) | 2.53 µM (inactive) | 2.8 µM (inactive) | 6.71 µM (inactive) |
| Clc1ccc(/C=N/c2ccc(Oc3ccc(Cl)cc3)c(Cl)c2)cc1 | 17.9 µM (inactive) | 22.3 µM (inactive) | 34.1 µM (inactive) | 27.8 µM (inactive) | 21.5 µM (inactive) | 21.5 µM (inactive) | 24.8 µM (inactive) | 22 µM (inactive) | 19.1 µM (inactive) | 14.3 µM (inactive) | 16.9 µM (inactive) | > 100 µM (inactive) | 17.2 µM (inactive) | 22.3 µM (inactive) | 22.5 µM (inactive) |  | 19.5 µM (inactive) | 19.8 µM (inactive) | 11.5 µM (inactive) | 19.4 µM (inactive) |
| CCCCN(Cc1ccccc1)/C(=N/C#N)N(Cc1ccccc1)Cc1ccccc1 | 17.1 µM (inactive) | 13.4 µM (inactive) | 12.1 µM (inactive) | 31.3 µM (inactive) | 26.5 µM (inactive) | 23.4 µM (inactive) | 10.2 µM (inactive) | 18.7 µM (inactive) | 14.2 µM (inactive) | 7.26 µM (inactive) | 4.3 µM (inactive) | 27 µM (inactive) | 21.9 µM (inactive) | 14.8 µM (inactive) | 21.1 µM (inactive) |  | 15.8 µM (inactive) | 16.1 µM (inactive) | 14.6 µM (inactive) | 11.4 µM (inactive) |
| CS(=N)(=O)CCC(N)P(=O)(O)O (stereo not drawn) | > 100 µM (inactive) | > 100 µM (inactive) | > 100 µM (inactive) | > 100 µM (inactive) | > 100 µM (inactive) | > 100 µM (inactive) | > 100 µM (inactive) | > 100 µM (inactive) | > 100 µM (inactive) | > 100 µM (inactive) | > 100 µM (inactive) | > 100 µM (inactive) | > 100 µM (inactive) | > 100 µM (inactive) |  | > 100 µM (inactive) | > 100 µM (inactive) | > 100 µM (inactive) | > 100 µM (inactive) | > 100 µM (inactive) |
| Nc1ncnc2c1ncn2C1CCC(COS(N)(=O)=O)C1 (stereo not drawn) | > 100 µM (inactive) | > 100 µM (inactive) | > 100 µM (inactive) | > 100 µM (inactive) | > 100 µM (inactive) | 65.5 µM (inactive) | > 100 µM (inactive) | > 100 µM (inactive) | > 100 µM (inactive) |  | 80.7 µM (inactive) | > 100 µM (inactive) | 27 µM (inactive) | > 100 µM (inactive) | 89.5 µM (inactive) | 56.4 µM (inactive) | 93.5 µM (inactive) | > 100 µM (inactive) | > 100 µM (inactive) | > 100 µM (inactive) |
| COC(CN(C)C(=O)C(C)NC(=O)c1ccccc1)OC (stereo not drawn) | > 100 µM (inactive) | > 100 µM (inactive) | > 100 µM (inactive) | > 100 µM (inactive) |  | > 100 µM (inactive) | > 100 µM (inactive) | > 100 µM (inactive) | > 100 µM (inactive) | > 100 µM (inactive) |  | > 100 µM (inactive) | > 100 µM (inactive) | > 100 µM (inactive) | > 100 µM (inactive) | > 100 µM (inactive) | > 100 µM (inactive) | > 100 µM (inactive) |  | > 100 µM (inactive) |
| CCOc1cc(C2CC(c3ccc(NS(=O)(=O)c4cc([N+](=O)[O-])ccc4C)cc3)=NN2C(=O)c2ccccc2)ccc1O (stereo not drawn) | 23.1 µM (inactive) | 17.8 µM (inactive) | 18.5 µM (inactive) | 18.7 µM (inactive) |  | 16.8 µM (inactive) | 30.3 µM (inactive) | 17.5 µM (inactive) | 21.8 µM (inactive) | 14.8 µM (inactive) | 12 µM (inactive) | 36.6 µM (inactive) | 20.9 µM (inactive) | 15.8 µM (inactive) | 14.1 µM (inactive) | 23.8 µM (inactive) | 12.1 µM (inactive) |  | 15.2 µM (inactive) | 14.8 µM (inactive) |
| COc1ccc(/C=C\c2cc(OC)c(OC)c(OC)c2)cc1OC(=O)CCC(=O)O | 0.000263 µM (active) | 0.000655 µM (active) | < 0.0001 µM (active) | 0.0149 µM (active) |  | < 0.01 µM (active) | 0.00043 µM (active) | < 0.0001 µM (active) | < 0.0001 µM (active) | < 0.0001 µM (active) | < 0.0001 µM (active) |  | < 0.01 µM (active) | 0.1 µM (active) | 43 µM (inactive) | < 0.0001 µM (active) | 29.9 µM (inactive) | < 0.0001 µM (active) | 1.34 µM (inactive) |  |
| C[N+](C)(N)CCC[N+](C)(C)N | > 100 µM (inactive) | > 100 µM (inactive) | > 100 µM (inactive) | > 100 µM (inactive) |  | > 100 µM (inactive) | > 100 µM (inactive) | > 100 µM (inactive) | > 100 µM (inactive) | > 100 µM (inactive) | > 100 µM (inactive) | > 100 µM (inactive) | > 100 µM (inactive) | > 100 µM (inactive) | > 100 µM (inactive) | > 100 µM (inactive) | > 100 µM (inactive) | > 100 µM (inactive) | > 100 µM (inactive) | > 100 µM (inactive) |
| c1ccc([I+]c2ccccc2)cc1 | > 100 µM (inactive) | > 100 µM (inactive) | > 100 µM (inactive) | > 100 µM (inactive) | > 100 µM (inactive) | > 100 µM (inactive) | > 100 µM (inactive) | > 100 µM (inactive) | > 100 µM (inactive) | > 100 µM (inactive) | > 100 µM (inactive) | > 100 µM (inactive) | > 100 µM (inactive) | > 100 µM (inactive) |  | > 100 µM (inactive) | > 100 µM (inactive) |  | > 100 µM (inactive) | 70 µM (inactive) |
| O=C(/C=C/c1ccc(O)c(O)c1)OCc1ccccc1 [BENZYL CAFFEATE] | 14.7 µM (inactive) | 19.2 µM (inactive) | 11.8 µM (inactive) | 29.7 µM (inactive) | 36.6 µM (inactive) | 9.71 µM (inactive) | 8.45 µM (inactive) | 21.6 µM (inactive) | 4.4 µM (inactive) | 0.809 µM (active) | 11 µM (inactive) | 29.5 µM (inactive) | 7.06 µM (inactive) | 9.73 µM (inactive) |  | 3.74 µM (inactive) | 12.1 µM (inactive) | 6.58 µM (inactive) | 13.7 µM (inactive) | 16.2 µM (inactive) |
